Series [1] addresses T1, ALDH3A1 (Homo sapiens, UniProt P30838).
T1 construct: purchased
T1 sequence (P30838 1-453): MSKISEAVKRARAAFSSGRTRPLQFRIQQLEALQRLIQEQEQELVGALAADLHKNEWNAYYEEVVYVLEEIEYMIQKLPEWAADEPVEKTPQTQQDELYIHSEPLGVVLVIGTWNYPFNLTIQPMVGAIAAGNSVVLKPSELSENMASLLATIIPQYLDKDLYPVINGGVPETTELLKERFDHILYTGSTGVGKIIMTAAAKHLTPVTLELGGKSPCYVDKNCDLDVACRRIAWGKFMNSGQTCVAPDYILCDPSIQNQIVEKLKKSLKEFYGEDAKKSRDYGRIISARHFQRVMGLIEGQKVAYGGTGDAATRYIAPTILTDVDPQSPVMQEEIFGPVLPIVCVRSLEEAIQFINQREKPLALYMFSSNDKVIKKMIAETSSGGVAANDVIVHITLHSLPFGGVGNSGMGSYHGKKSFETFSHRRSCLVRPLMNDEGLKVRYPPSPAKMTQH
Briefly: Kinetic characteristics (Michaelis-Menten Km, Kcat) with ALDH3A1. It is filed as biochemical. The note with it: five minutes at 37° C., Tris buffer pH 7.5. As to the method: Human recombinant ALDH1A1/1A3/3A1 was purchased, and 100 mM of KCL, 2 mM of DTT, 1 mM of NAD(P), 10-100 nM of each ALDH, and 10-80 μM of each compound were mixed in Tris buffer (100 mM, pH 7.5), reacted for 30 minutes at 37° C., an equal amount of acetonitrile added, and the reaction stopped. The reaction solution was analyzed by UPLC/MS/MS (Waters). The UPCL chromatogram was carried out over five minutes at a flow rate of 800 μL/min by a linear gradient from 5% acetonitrile 0.01 M ammonium formate/water to 95% acetonitrile 0.01 M ammonium formate/water. An aldehyde-form and carboxylic acid-form probe were detected by the absorbance at a wavelength of 504 nm, and m/z of the MS spectrum at each peak was confirmed to agree with the expected m/z.
For the reaction, 100 mM of KCL, 2 mM of DTT, 1 mM of NAD(P), and five to six concentrations within the range of 10-100 nM of each ALDH and 0.1-80 μM of each probe were selected, mixed in Tris buffer (100 mM, pH 7.5), and reacted for five minutes at 37° C.; an equal amount of acetonitrile was added, and the reaction was stopped. Detection of the aldehyde-form/carboxylic acid-form probes was carried out using the same method as described above by UPLC/MS/MS. Km and Kcat were calculated by fitting the reaction rate at each probe concentration obtained to the Michaelis-Menten equation. A Kaleida Graph ver. 4.1 (Hulinks, Inc.) was used in fitting.
The Kcat ratio (Kcat of ALDH3A1/Kcat of ALDH1A1) was calculated for probe 1, probe 3, and probe 5 as an indicator of ALDH1A1/ALDH3A1 specificity because the probe reaction rate at the actual probe use concentration is believed to be close to Vmax since Km is relatively small (Table 5).

For series [2], the system named is OE21 cells. Put plainly: Flow cytometry of OE21 cells (positive rate). It is filed as cell-based. As to the method:
Flow cytometry was carried out using probe 5 and OE21 cells. The cells were treated using trypsin, and the cell density was measured after passing the cells through a cell strainer (40 μm, Corning). […] After centrifuging for three minutes at 1500 rpm and removing the supernatant after the reaction, the cells were washed with chilled medium, centrifuged, and the medium was removed. The cells were again suspended in 100 μL of medium, and 4 μL of SYTOX (registered trademark) Red Dead Cell Stain (Thermo Fisher) was added. After standing for five minutes on ice, 150 μL of medium was added. […] Analysis was carried out using FACS Canto II (BD Biosciences). Excitation was provided by a blue laser (488 nm), and the brightness of probe 5 was detected in each cell by FITC channel (515-545 nm). About 30,000 cells were analyzed in each sample after removing doublets and removing dead cells. The positive gate was set in a range from near to above the upper limit of brightness in the negative control according to ALDEFLUOR assay, so that at most 3% of the cells were present within the gate in the negative control sample. Three independent tests were run.
ALDH3A1 was knocked down using small interference RNA (siRNA) to confirm that the positive group in flow cytometry using 0E21 cells and compound 5 was due to ALDH3A1 activity, and flow cytometry was conducted. Two siRNAs confirmed to be effective (Silencer (registered trademark) Select, s1243 and s1244) and a negative control (Silencer® negative control #1) were purchased from Thermo Fisher. Lipofectamine® RNAiMAX as transfection reagent and Opti-MEM® as diluent were purchased from Thermo Fisher. According to the instruction manual, 300 μL of siRNA-Lipofectamine complex was produced according to the instruction manual so that siRNA was 10 nM and Lipofectamine was 3%, and 250 μL thereof was mixed with 2.5 mL of OE21 cell suspension and sown in six-well dishes. The effect of knockdown was confirmed after six days by Western blotting (FIG. 6a).
Lysates were produced using negative control cells (ctrl) in which ALDH3A1 was not knocked down and cells (KD) in which ALDH3A1 was permanently knocked down. Western blotting was carried out, and pronounced knockdown of ALDH3A1 was confirmed (FIG. 9a). […] The top 25% (top) and bottom 25% (bottom) of fluorescent brightness were sorted out by FACS Aria II using a sample in which the positive and negative were well separated. The respective lysates were produced, Western blotting was carried out using the same, and the expression levels of ALDH3A1 were compared (FIG. 9c).
On the technique in general: In flow cytometry, cells or beads pass a laser one at a time.

Series [3] relates to OE21 cells. Put plainly: SYTOX Red Dead Cell Stain assay during flow cytometry. It is filed as cell-based. The note with it: OE21 shRNA cells, probe 5 with MK-571, SYTOX Red Dead Cell Stain. As to the method: Flow cytometry was carried out using probe 5 and OE21 cells. The cells were treated using trypsin, and the cell density was measured after passing the cells through a cell strainer (40 μm, Corning). A quantity of 500 μL of a cell suspension to make 2.5-5×10^5/mL in medium containing 40 μM of probe 5 was prepared and cultured for 90 minutes at 37° C. After centrifuging for three minutes at 1500 rpm and removing the supernatant after the reaction, the cells were washed with chilled medium, centrifuged, and the medium was removed. The cells were again suspended in 100 μL of medium, and 4 μL of SYTOX (registered trademark) Red Dead Cell Stain (Thermo Fisher) was added. After standing for five minutes on ice, 150 μL of medium was added. A sample with CB7 (10 μM) added was used as a negative control. Analysis was carried out using FACS Canto II (BD Biosciences). Excitation was provided by a blue laser (488 nm), and the brightness of probe 5 was detected in each cell by FITC channel (515-545 nm). About 30,000 cells were analyzed in each sample after removing doublets and removing dead cells. The positive gate was set in a range from near to above the upper limit of brightness in the negative control according to ALDEFLUOR assay, so that at most 3% of the cells were present within the gate in the negative control sample. Three independent tests were run. […]

The mark [4] stands for this setting: 50 μM probe 5, 200 μM MK-571, CB7 20 μM control.

The values below come from patent publication US20200207989A1, “FLUORESCENT PROBE FOR ALDH3A1 DETECTION” (The University of Tokyo, priority 2016, published 2020).

Broadly, the Km is the concentration of substrate that gives half-maximal velocity. Regarding `CCN(CCOCCNC(=O)c1ccc(-c2c3ccc(=O)cc-3oc3cc(O)ccc23)c(C)c1)c1ccc(C=O)cc1` [Probe 5, 2-(2-(N-ethyl-N-(4-formylphenyl)amino)ethoxy)ethyl-3-methyl-4-(6-hydroxyxanthen-3-on-9-yl)-benzamide], the Km in series [1] was 3.49 ± 0.55 µM. Also, the “Positive rate in flow cytometry” value in series [2] (40 μM probe 5, 90 minutes at 37° C., no MK-571, gate set with CB7 10 μM control) is given as 10-15%. Also, in series [2] (setting [4]), the “Positive rate in flow cytometry with MK-571, ALDH3A1 siRNA knockdown” value is listed as “around 10%” and the “Positive rate in flow cytometry with MK-571, cells treated by negative control siRNA” value is recorded as “about 90%”. The “Positive rate in flow cytometry with MK-571” value in series [2] (50 μM probe 5, MK-571 200 μM) is listed as “about 90%”. The “Dead cells / cell death due to the probe” value in series [3] was “virtually no dead cells were found”.
